# Data reported in patent publication US4670421A, “Antiatherosclerotic silanes” (American Cyanamid Company, priority 1982, dated 1987).
# What was measured:
# [1] = Serum hypolipidemic activity in vivo: lowering of serum cholesterol and triglycerides in rats; set-up: species or system male rats COBS, CD, SD strain; conditions: oral, 0.1% by weight in diet, 5 days, vs control animals
# Procedure: (§1) The compounds of the present invention were assayed for two types of biological activity related to their potential use as antiatherosclerotic agents. Compounds were tested in vitro for their ability to inhibit the enzymes fatty acyl CoA:cholesterol acyl transferase (ACAT) and in vivo for serum hypolipidemic activity as measured by their ability to inhibit lipid absorption in rats. The compounds were tested for their ability to inhibit ACAT according to the following procedure:
# The compounds were also tested for their ability to lower lipid levels in mammals. The compounds were administered orally admixed with diet (0.1% by weight) to groups of four male rats COBS, CD, SD strain from Charles River Breeding Laboratories, Inc, Wilmington, Mass. A control group of eight rats was maintained on the diet alone; test groups were maintained on the diet plus 0.1% of test compounds by weight. After 5 days treatment, serum cholesterol and triglyceride concentrations were determined by direct enzymatic procedures using a Centrifichem® System 400 autoanalyzer (Union Carbide Co.). Cholesterol concentrations were determined by the combined cholesterol esterase-cholesterol oxidase procedure of Roelschlau et. al., Zeit. Klin. Chem. Lkin. Biochem., 12, 226 (1974). Triglycerides were determined by the combined method of lipase catalyzed hydrolysis of triglycerides to glycerol and free fatty acids [Bucolo, G. and David, H., Clin. Chem. 19, 476 (1973)] and Wahlefeld, A. W., in "Methods of Enzymatic Analysis", Vol. 4, Bergmeyer, H. U., Editor, Academic Press, New York, N.Y. (1974), pp. 1831-1835 and the enzymatic oxidation of the glycerol which leads to the production of colored formazan [Stavropoulos, W. S. and Crouch, R. D., Clin. Chem., 20, No. 7, 857 (1974)]. […] Compounds which produce statistically significant lowering of either sterol or triglycerides are considered to be active.
# [2] = molecular target: T1, fatty acyl CoA:cholesterol acyl transferase (ACAT) (Rattus norvegicus, UniProt O70536); assay: Inhibition of fatty acyl CoA:cholesterol acyl transferase (ACAT) in vitro (rat adrenal supernatant, oleoyl CoA-14C); assay type: biochemical; conditions: final concentration 5.2 μg./ml., 37° C.; for inhibition at 5.2 µg/mL: pH 7.4, rat adrenal supernatant; for % Inhibition (ACAT): rat adrenal supernatant, pH 7.4
# T1 construct: Rat adrenals were homogenized in 0.2M monobasic potassium phosphate buffer; from tissue; host or cells: rat adrenals, 1000 x g supernatant of the homogenate containing the microsomal fraction
# T1 sequence (O70536 1-545): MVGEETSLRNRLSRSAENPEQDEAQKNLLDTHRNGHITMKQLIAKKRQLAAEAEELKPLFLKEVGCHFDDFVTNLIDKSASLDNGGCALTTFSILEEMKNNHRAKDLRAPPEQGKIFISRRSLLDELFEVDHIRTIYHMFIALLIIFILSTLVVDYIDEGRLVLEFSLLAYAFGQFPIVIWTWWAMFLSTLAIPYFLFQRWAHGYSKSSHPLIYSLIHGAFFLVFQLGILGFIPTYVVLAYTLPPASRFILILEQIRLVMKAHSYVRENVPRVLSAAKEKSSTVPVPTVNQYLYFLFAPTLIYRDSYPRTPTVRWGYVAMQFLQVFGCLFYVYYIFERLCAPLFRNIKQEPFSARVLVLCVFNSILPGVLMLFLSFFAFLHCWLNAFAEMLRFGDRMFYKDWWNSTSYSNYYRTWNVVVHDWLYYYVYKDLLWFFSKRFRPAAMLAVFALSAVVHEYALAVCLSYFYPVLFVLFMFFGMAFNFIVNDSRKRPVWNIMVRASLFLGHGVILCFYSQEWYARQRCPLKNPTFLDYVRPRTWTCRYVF
# Procedure: as §1
# Rat adrenals were homogenized in 0.2M monobasic potassium phosphate buffer, pH 7.4, and centrifuged at 1000 times gravity for 15 minutes at 5° C. The supernatant, containing the microsomal fraction, served as the source of the cholesterol-esterifying enzyme, fatty acyl CoA:cholesterol acyl transferase (ACAT). A mixture comprising 50 parts of adrenal supernatant, 10 parts of albumin (BSA) (50 mg./ml.), 3 parts of test compound (final concentration 5.2 μg./ml.) and 500 parts of buffer was preincubated at 37° C. for 10 minutes. After treatment with 20 parts of oleoyl CoA(^14 C-0.4 μCi) the mixture was incubated at 37° C. for 10 minutes. A control mixture, omitting the test compound, was prepared and treated in the same manner. The lipids from the incubation mixture were extracted into an organic solvent and separated by thin-layer chromatography. The cholesteryl ester fraction was counted in a scintillation counter. This procedure is a modification of that described by Hashimoto, et al., Life Scie., 12 (Part II), 1-12 (1973).
SMILES,% Lowering of Serum Sterol [1] [%],% Lowering of Serum Triglycerides [1] [%],inhibition at 5.2 µg/mL [2] [%],% Inhibition (ACAT) [2] [%]
C[Si](C)(C)CCCNc1ccc(C(=O)O)cc1 [4-[3-(Trimethylsilyl)propylamino]benzoic acid],18,53,12,–
C[Si](C)(C)CCCCCCCCCCCNc1ccc(C(=O)O)cc1 [4-[11-(Trimethylsilyl)undecylamino]benzoic acid],56,75,57,–
C[Si](C)(C)CCCCCCCCCCCCCCNc1ccc(C(=O)O)cc1 [4-[14-(Trimethylsilyl)tetradecylamino]benzoic acid],60,70,60,–
CCOC(=O)c1ccc(NCCC[Si](C)(C)C)cc1 [Ethyl 4-[3-(trimethylsilyl)propylamino]benzoate],23,46,59,–
CCOC(=O)c1ccc(NCCCCCCCCCCC[Si](C)(C)C)cc1 [Ethyl 4-[11-(trimethylsilyl)undecylamino]benzoate],43,22,17,–
CCOC(=O)c1ccc(NCCCCCCCCCCCCCC[Si](C)(C)C)cc1 [Ethyl 4-[14-(trimethylsilyl)tetradecylamino]benzoate],47,38,50,–
C[Si](C)(C)CCCNc1ccc(C(=O)[O-])cc1.[Na+] [Sodium 4-[3-(trimethylsilyl)propylamino]benzoate],36,23,–,23
C[Si](C)(C)CCCCCCCCCCCNc1ccc(C(=O)[O-])cc1.[Na+] [Sodium 4-[11-(trimethylsilyl)undecylamino]benzoate],52,54,–,56
C[Si](C)(C)CCCCCCCCCCCCCCNc1ccc(C(=O)[O-])cc1.[Na+] [Sodium 4-[14-(trimethylsilyl)tetradecylamino]benzoate],61,78,–,62
